These results are taken from ChEMBL document CHEMBL4000141, “Synthesis and carbonic anhydrase isoenzymes I, II, IX, and XII inhibitory effects of dimethoxybromophenol derivatives incorporating cyclopropane moieties” (J Med Chem, 2015).

Structures are written as SMILES.

One assay deals with Carbonic anhydrase 12 (Homo sapiens, UniProt O43570). The assay is described as follows: Inhibition of human CA12 by stopped-flow CO2 hydration method.
Carbonic anhydrase 12, sequence (O43570 whole entry): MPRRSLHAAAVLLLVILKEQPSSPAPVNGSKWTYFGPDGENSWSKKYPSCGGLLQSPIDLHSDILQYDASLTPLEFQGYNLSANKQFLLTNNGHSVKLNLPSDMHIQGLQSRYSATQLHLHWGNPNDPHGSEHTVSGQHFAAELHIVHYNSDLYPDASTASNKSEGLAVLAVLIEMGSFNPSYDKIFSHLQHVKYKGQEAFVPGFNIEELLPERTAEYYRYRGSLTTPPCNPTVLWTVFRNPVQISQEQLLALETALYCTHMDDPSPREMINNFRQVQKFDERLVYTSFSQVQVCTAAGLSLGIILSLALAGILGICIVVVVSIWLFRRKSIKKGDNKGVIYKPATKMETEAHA
As usually defined, the Ki is the dissociation constant of the complex between target and ligand, obtained from inhibition or displacement. Read a low Ki as a stronger hold on the target. `COc1cc(Br)c(C[C@@H]2C[C@H]2C(=O)O)c(Br)c1OC` registered an inhibition constant (Ki) greater than 50 µM.

`COc1cc(C[C@H]2C[C@H]2C(=O)O)c(Br)c(Br)c1OC` showed a Ki greater than 50 µM.

`COc1cc(C[C@@H]2C[C@H]2C(=O)O)c(Br)c(Br)c1OC`: the Ki is greater than 50 µM.

`COc1cc(Br)c(C[C@H]2C[C@H]2C(=O)O)c(Br)c1OC` returned a Ki greater than 50 µM.

The target in a further assay is Carbonic anhydrase 9 (Homo sapiens, UniProt Q16790).
Description: Inhibition of human CA9 by stopped-flow CO2 hydration method
For the compound `COc1cc(Br)c(C[C@@H]2C[C@H]2C(=O)O)c(Br)c1OC`, the Ki was greater than 50 µM.

As for `COc1ccc(C[C@@H]2C[C@@H]2C(=O)O)cc1OC`, the Ki worked out at 8.8 µM.

In turn, `COc1cc(C[C@H]2C[C@H]2C(=O)O)c(Br)c(Br)c1OC` returned a Ki greater than 50 µM.

For the compound `CCOC(=O)[C@@H]1C[C@H]1Cc1c(Br)c(Br)c(OC)c(OC)c1Br`, the affinity corresponds to a Ki of 7.8 µM.

Turning to `CCOC(=O)[C@@H]1C[C@@H]1Cc1c(Br)cc(OC)c(OC)c1Br`, the affinity, expressed as Ki, was 8.9 µM.

As for `CCOC(=O)[C@@H]1C[C@H]1Cc1cc(OC)c(OC)c(Br)c1Br`, the inhibition constant Ki is 9 µM.

Turning to `COc1ccc(C[C@@H]2C[C@H]2C(=O)O)cc1OC`, the affinity, expressed as Ki, was 1.1 µM.

In turn, `COc1c(Br)c(Br)c(C[C@@H]2C[C@H]2C(=O)O)c(Br)c1OC` gave a Ki greater than 50 µM.

Compound `CCOC(=O)[C@@H]1C[C@@H]1Cc1ccc(OC)c(OC)c1` showed a Ki of 6.6 µM.

Take `COc1cc(Br)c(C[C@@H]2C[C@H]2C(=O)O)cc1OC`: the Ki turned out to be 9.8 µM.

Regarding `COc1ccc(C[C@@H]2C[C@H]2CO)cc1OC`, the Ki is 8.8 µM.

With `COc1cc(C[C@@H]2C[C@H]2C(=O)O)c(Br)c(Br)c1OC`, the Ki was greater than 50 µM.

For `CCOC(=O)[C@@H]1C[C@@H]1Cc1cc(OC)c(OC)c(Br)c1Br`, the Ki was greater than 50 µM.

Take `CCOC(=O)[C@@H]1C[C@H]1Cc1cc(OC)c(OC)cc1Br`: the inhibitory constant (Ki) was found to be 7.3 µM.

Regarding `COc1ccc(C[C@H]2C[C@H]2CO)cc1OC`, the affinity, expressed as Ki, was 4.9 µM.

For `CCOC(=O)[C@@H]1C[C@H]1Cc1ccc(OC)c(OC)c1`, the Ki stood at 9.1 µM.

Regarding `COc1cc(Br)c(C[C@H]2C[C@H]2C(=O)O)c(Br)c1OC`, the Ki was greater than 50 µM.

`COc1cc(Br)c(C[C@H]2C[C@H]2C(=O)O)cc1OC`: the Ki was greater than 50 µM.

`CCOC(=O)[C@@H]1C[C@H]1Cc1c(Br)cc(OC)c(OC)c1Br`: the inhibitory constant (Ki) stood at 9.7 µM.

In the case of `COc1c(Br)c(Br)c(C[C@H]2C[C@H]2C(=O)O)c(Br)c1OC`, the affinity corresponds to a Ki of 10.5 µM.

Compound `CCOC(=O)[C@@H]1C[C@@H]1Cc1cc(OC)c(OC)cc1Br` had a Ki of 1 µM.

As to `CCOC(=O)[C@@H]1C[C@@H]1Cc1c(Br)c(Br)c(OC)c(OC)c1Br`, the inhibition constant (Ki) is greater than 50 µM.
